This note sets out measurements from US20190388459A1, “NEW THERAPEUTIC USES” (ATLANTIC PHARMACEUTICALS (HOLDINGS) LTD, priority 2017, published 2019).

In data set [1] the test system is OVA-induced allergic asthma mouse model. The data set is described as follows: Ovalbumin-induced murine model of allergic asthma, BALF analysis. The conditions noted are these: Day 28, alicaforsen 1 mM IN 30 μl, dexamethasone 10 mg/kg IP, days 14, 25-27. In kind it is in vivo, Balb/c mice. The protocol:
Allergic asthma was modeled in female BALB/c mice by initial sensitization to OVA followed by subsequent intranasal challenge of purified OVA.
Mice were monitored throughout the study for changes in body weight and general signs of sickness. Allergic response to OVA was measured by examining bronchoalveolar lavage fluid (BALF) for inflammatory cell influx and the presence of the inflammatory cytokine IL-13.
On days 0 and 14, each animal was administered an IP injection of 200 μL OVA/Alum emulsion containing 100 μg OVA.
On days 14 and 25-27, each animal was administered an intranasal challenge of 30 μL PBS containing 50 μg OVA.
Treatments were performed on the same days as OVA challenge on Study Days 14 and 25-27 (4 total treatments). Treatments were administered 1 hour following OVA challenge.
10 mg/kg dexamethasone was administered in 200 μL volume/animal (intraperitoneal) on Study Days 14 and 25-27 (4 total treatments).
Bonchoalveolar lavage was performed on euthanised animals. Briefly, an angiocatheter was placed into trachea. 1 mL of PBS was instilled into the lungs and allowed to flow back out into the syringe; the PBS was then instilled and removed again. The resultant Bronchoalveolar lavage fluid (BALF) was centrifuged at 500×g for 5 mins.
The non-cellular portion of the BALF was stored at −80° C. The levels of IL-13 were analyzed by Luminex technology.
The cellular portion of the BALF was used to analyze the cell influx. The total number of leukocytes within the BALF and different cell types present were examined via flow cytometry.
Granulocytes: CD45^+; Non-autofluorescent; Gr-1^+
Eosinophils: CD45^+; Non-autofluorescent; Gr-1^+; Siglec F^+

Data set [2] concerns the target T1, TLR9 (Homo sapiens, UniProt Q9NR96).
T1 sequence (Q9NR96 26-1032): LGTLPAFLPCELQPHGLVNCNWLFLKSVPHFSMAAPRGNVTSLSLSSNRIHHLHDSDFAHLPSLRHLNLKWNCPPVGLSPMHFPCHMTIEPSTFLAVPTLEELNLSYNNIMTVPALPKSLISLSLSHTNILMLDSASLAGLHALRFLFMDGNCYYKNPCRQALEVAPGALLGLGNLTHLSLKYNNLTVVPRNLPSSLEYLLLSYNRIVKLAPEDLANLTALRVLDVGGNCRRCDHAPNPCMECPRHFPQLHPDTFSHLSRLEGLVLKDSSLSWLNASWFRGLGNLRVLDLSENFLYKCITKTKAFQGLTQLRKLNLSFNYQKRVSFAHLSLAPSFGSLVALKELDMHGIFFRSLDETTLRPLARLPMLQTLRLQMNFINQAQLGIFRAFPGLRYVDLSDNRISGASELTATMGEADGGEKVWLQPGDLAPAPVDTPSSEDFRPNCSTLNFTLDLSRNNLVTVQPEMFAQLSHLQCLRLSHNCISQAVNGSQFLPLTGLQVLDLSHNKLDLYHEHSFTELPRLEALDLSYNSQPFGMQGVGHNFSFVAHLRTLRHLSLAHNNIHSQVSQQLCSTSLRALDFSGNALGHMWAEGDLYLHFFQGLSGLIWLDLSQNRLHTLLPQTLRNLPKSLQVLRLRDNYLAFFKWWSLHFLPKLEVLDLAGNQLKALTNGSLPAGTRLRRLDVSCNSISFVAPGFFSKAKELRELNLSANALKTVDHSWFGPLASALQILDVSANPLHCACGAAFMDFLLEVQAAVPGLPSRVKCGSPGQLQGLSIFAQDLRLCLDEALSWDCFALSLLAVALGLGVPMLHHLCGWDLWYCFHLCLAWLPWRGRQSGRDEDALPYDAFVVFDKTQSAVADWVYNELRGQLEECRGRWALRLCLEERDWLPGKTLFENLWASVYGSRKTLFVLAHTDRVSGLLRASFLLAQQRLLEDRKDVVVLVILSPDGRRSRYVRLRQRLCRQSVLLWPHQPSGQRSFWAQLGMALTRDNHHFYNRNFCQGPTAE
The experiment in a line: Inhibition of TLR9-mediated NF-kB induction activated by CpG ODN2006, luciferase reporter HEK 293 cell line. Set-up: host or cells: HEK 293 (TLR9/NF-kB luciferase reporter line). In kind it is cell-based. The protocol: Briefly, the TLR9/NF-kB luciferase reporter HEK 293 cell line was plated in 96-well white solid plates at 5×10^4 cells per well for 16 h. […] Cells were then treated with 20 ug/ml of CpG ODN2006 to activate TLR9. After 16 h, luciferase activity was measured and analyzed.

Data set [3] in a line: Circular Dichroism spectroscopy, thermal stability of secondary structure. The data set is classed as physicochemical. An excerpt: SEQ ID NO: 1 was therefore subjected to Circular Dichroism (CD) spectroscopy to gather information about the possible secondary structure. CD of DNA can be utilized to detect all 3 major forms of duplex structure (B, A and Z) and is sensitive to conditions that disrupt the structure such a heating. Of interest was the stability of any secondary structure detected at or above physiologic temperatures.
Additional thermal denaturation of the putative duplex was also studied in the presence of Na^+ at concentrations of 50 mM and 150 mM. Sodium fluoride was used as Cl^− ions interfere with the CD spectra in this UV region.
Additional experiments were conducted to test the influence of Mg^++ and polyamines on the stability of the structure.
(Circular dichroism is widely used to follow secondary structure.)

Data set [4] concerns the target T1, TLR9. The experiment in a line: Effect of heat, Na+, Mg++ and spermine pre-treatment on TLR-9 antagonist activity. In kind it is cell-based. The conditions noted are these: pre-treated with 5 mM spermine, heated to 90° C. and cooled; 1.0 uM ODN2006. The protocol:
The samples and conditions of these tests are diagramed in FIG. 9.
One sample remained at room temperature while the remaining samples were heated to 90° C. for 3 min and then allowed to cool to room temperature. The samples were then diluted to the indicated concentrations and incubated with the target cells for 1 hr, prior to the addition of 1.0 uM ODN2006 to stimulate TLR-9.

For data set [5], the target named is T1, TLR9. The data set is described as follows: TLR9 activation (agonist) screen, TLR9/NF-kB luciferase reporter HEK 293 cell line. The conditions noted are these: up to concentrations as high as 100 uM. The data set is classed as cell-based. Set-up: host or cells: HEK 293 (TLR9/NF-kB luciferase reporter line). The protocol: […] Briefly, the TLR9/NF-kB luciferase reporter HEK 293 cell line (Abeomics, San Diego, Calif.) was plated in 96-well white solid plates at 5×10^4 cells per well for 16 h. […] Luciferase activity was then measured and analyzed.
(Reporter assays use an easily measured gene product as a stand-in for the process of interest.)

Data set [6] concerns the target T1, TLR9. The experiment in a line: TLR-9 antagonist activity with E. coli genomic DNA as the activator. In kind it is cell-based.
For the next data set, the system named is dry eye murine model. The data set is described as follows: Scopolamine dry eye murine model, corneal fluorescein staining and clinical signs. The data set is classed as in vivo, Mouse C57BL/6N. Conditions: for Corneal fluorescein staining score (mean ± SD): one dose per day, topical both eyes. The procedure: In a model of mice, the application of transdermal scopolamine patches to the mid-tail is used to reduce aqueous tear production and thus mimic lacrimal gland insufficiency. The function of scopolamine is to induce a pharmacologic blockade of cholinergic receptors in the lacrimal gland and therefore to decrease aqueous production. The desiccation is amplified by adding environmental stress. Animals are exposed to a low-humidity environment and constant airflow.
Mice were treated with transdermal scopolamine administration (0.5 mg/72 h; Scopoderm TTS®). The transdermal scopolamine patch was wrapped near the tail base of the mouse, secured with cellophane tape. Patches were reapplied every 48 hours.
Mice were randomized into 4 groups of 10 animals. The study was divided into 2 experimental sets with 5 animals of each group represented.
All test items, control items and comparator item were instilled in both eyes (5 μL per administration), using a micropipette.
Tear production and corneal defects were assessed at baseline, on Days 3, 6 and 10 using phenol red thread (PRT) and corneal fluorescence staining (CFS), respectively, for each animal of the 4 groups.
Each day, the general clinical signs and the appearance of all animals was observed.
At the different time points the measurement was performed before administration on Day 3 and at least one hour after the second treatment for the other days of the study. The eyes of the animals from all groups were examined by slit-lamp observation using blue light after 0.5% fluorescein eye drop instillation (0.5 μL). Punctuate staining was recorded with the standardized National Eye Institute (NEI) grading system giving a 0-3 score to each of the 5 areas in which the corneas were divided.

Marks after values point to notes of the source that are not given here.

As for `C[C@@H]1C[C@H]2[C@@H]3CCC4=CC(=O)C=C[C@]4(C)[C@@]3(F)[C@@H](O)C[C@]2(C)[C@@]1(O)C(=O)CO` [Dexamethasone], in data set [1], the “BALF IL-13, Mean” value is on record as 13.2** pg/ml and the “Total CD45 cells in BALF, Mean” value worked out at 236574. For the same compound, in data set [1] (in % (unit assumed)), the “Eosinophil (Frequency of CD45+) in BALF, Mean” value is given as 46.60** and the “Granulocyte (Frequency of CD45+) in BALF, Mean” value is 51.88**.
For “alicaforsen (GCCCAAGCTGGCATCCGTCA; chemistry not given here; listed as Homo sapiens) [SEQ ID NO: 1]”, the TLR-9 antagonism entry with TLR9 [2] (ODN2006 as activator) is recorded as “antagonist of TLR-9”. The “concentration needed for TLR-9 antagonism relative to inhibition of ICAM-1 expression” value in the data set with TLR9 [2] (comparative dose responses, FIG. 3) is listed as “requires higher concentrations than the inhibition of ICAM-1 expression”. Also, the “effect of spermine on secondary structure” value in data set [3] (5 mM spermine in the presence of 50 mM Na+) is on record as “completely abolished the secondary structure”. Also, in data set [3] (50 and 150 mM sodium, 40° C.), the “structure retained (190 nm peak intensity)” value was “at least 50%”. In addition, the “loss of signal strength of 190 nm CD band” value in data set [3] (ddH20, heating to 80° C.) is on record as more than 85%. The “TLR-9 inhibitory activity of spermine-treated samples” value with TLR9 [4] was “some activity is still observed”. Also, the “agonist activity at TLR-9” value with TLR9 [5] is “devoid of agonist activity”. For the same compound, in the data set with TLR9 [6], the “antagonism of TLR-9 activation by E. coli genomic DNA” value is “remained antagonistic to activation of TLR-9”. The “tolerability of multiple topical administrations” value with dry eye murine model (1 mM and 10 mM, topical ocular) is recorded as “clinically well tolerated”. Further, the “Corneal fluorescein staining score (mean ± SD)” value in the data set on dry eye murine model (Day 6, 1 mM) was 10.5 ± 2.6; in the data set on dry eye murine model (Day 6, 10 mM) it was 10.8 ± 2.0; in the data set with dry eye murine model (Day 10, 1 mM, listed as ALICAFORSEN), 9.3 ± 3.1; in the data set with dry eye murine model (Day 10, 1 mM, listed as alicaforsen) it was “lower than the Vehicle group”; with dry eye murine model (Day 10, 10 mM, listed as ALICAFORSEN) it was 9.7 ± 2.2; in the data set with dry eye murine model (Day 10, 10 mM, listed as alicaforsen) it was “lower than the Vehicle group”.
